Measurements: ChEMBL document CHEMBL1671736, “In vivo efficacy of anidulafungin against mature Candida albicans biofilms in a novel rat model of catheter-associated Candidiasis” (2010)
Converted amounts (≈) assume the structure as drawn. The source made the active and inactive calls. No cut-off for these calls is given here. *1 amine or outer side, *2 acyl side, *3 side chain or, on linkers, in order; H or OH if unused. Where a SMILES comes first, the peptide text is derived from it. Bridges are numbered along the chain shown (N, C = ends). [ ]: non-standard residue; d: D form. The star is where a group is joined. pTerphenylCO(4''-OnC5H11) = CCCCCOc1ccc(-c2ccc(-c3ccc(C(=O)*)cc3)cc2)cc1; Orn(4R-OH,5R-OH) = O=C([C@H](C[C@@H](O)[C@@H](O)N[*:3])N[*:1])[*:2]; hTyr(3S-OH,4S-OH) = N[C@H](C(=O)O)[C@H](O)[C@@H](O)c1ccc(O)cc1; Pro(3S-OH,4S-Me) = C[C@H]1CN[C@H](C(=O)O)[C@H]1O; Hyp = O=C(O)[C@@H]1C[C@@H](O)CN1

How the values were obtained:
Candida albicans [1] = assay: Antimicrobial activity against Candida albicans SC5314 biofilms infected in Sprague-Dawley rat implanted subcutaneously with catheter fragments challenged Candida cells assessed as […] at 10 mg/kg, ip qd for 7 days (Rvb=2.92 +/- 0.34 log10 CFU/catheter fragment); format: functional
Candida albicans [2] = assay: Antimicrobial activity against Candida albicans SC5314 assessed as reduction of biofilm metabolic activity in in vitro catheter-associated rat model by XTT assay; format: functional
Candida albicans [3] = assay: Antimicrobial activity against Candida albicans SC5314 assessed as reduction of biofilm metabolic activity in in vitro catheter-associated rat model at 64 ug/ml by XTT assay; format: functional, organism-based
Candida albicans [4] = assay: Antimicrobial activity against Candida albicans SC5314 biofilms infected in Sprague-Dawley rat implanted subcutaneously with catheter fragments challenged Candida cells assessed as […] at 125 mg/kg, ip qd for 7 days (Rvb=2.92 +/- 0.34 log10 CFU/catheter fragment); format: functional

| Structure (SMILES) | log10cfu (Candida albicans [1]) | MIC (Candida albicans [2]) [µg/mL] | Activity (Candida albicans [3]) | log10cfu (Candida albicans [4]) |
| --- | --- | --- | --- | --- |
| CCCCCOc1ccc(-c2ccc(-c3ccc(C(=O)N[C@H]4C[C@@H](O)[C@@H](O)NC(=O)[C@@H]5[C@@H](O)[C@@H](C)CN5C(=O)[C@H]([C@@H](C)O)NC(=O)[C@H]([C@H](O)[C@@H](O)c5ccc(O)cc5)NC(=O)[C@@H]5C[C@@H](O)CN5C(=O)[C@H]([C@@H](C)O)NC4=O)cc3)cc2)cc1 [ANIDULAFUNGIN] ({pTerphenylCO(4''-OnC5H11)}-[Orn(4R-OH,5R-OH)]T[Hyp][hTyr(3S-OH,4S-OH)]T[Pro(3S-OH,4S-Me)]; lactam 1-C) | 2.14 | 0.25 (≈ 0.219 µM) | – | – |
| OC(Cn1cncn1)(Cn1cncn1)c1ccc(F)cc1F [FLUCONAZOLE] | – | – | inactive | 3.01 |
